Data taken from patent publication US20230159496A1, “COMPOUNDS AND METHODS FOR MODULATING SPLICING” (REMIX THERAPEUTICS INC., priority 2020, published 2023).
Like-named read-outs stand apart in the source and are kept apart here.

Experiments:
Type in all cases: cell-based
[1] = tested on: HTT mRNA; test: Splicing assay (RT-qPCR) monitoring HTT canonical junction (CJ) and alternative junction (AJ) mRNA isoforms
In short: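 A673 or K562 cells treated 24 h at 37 °C with an 11-point 3-fold dilution (top 10 uM final, DMSO ≤0.25%). Lysates assayed by one-step RT-qPCR for HTT CJ and AJ isoforms, normalized to GAPDH, GUSB (K562) or PPIA (A673).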

[2] = tested on: HTT CJ mRNA; test: Gene panel canonical junction qPCR assay, HTT; settings: read-out: HTT IC50
In short: (§1)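 A673 or K562 cells were treated for 24 h at 37 °C with an 11-point 3-fold dilution, top dose 10 uM, DMSO ≤0.25%. Canonical junction mRNA in lysates was quantified by one-step RT-qPCR and normalized to GAPDH, GUSB or PPIA.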

[3] = tested on: SMN2 CJ mRNA; test: Gene panel canonical junction qPCR assay, SMN2; settings: read-out: SMN2 IC50
In short: as §1

[4] = tested on: Target C CJ mRNA; test: Gene panel canonical junction qPCR assay, Target C; settings: read-out: Target C IC50
In short: as §1

[5] = decrease in CJ mRNA (50% response), A673 or K562 cells, 24 h treatment, top dose 10 uM, read-out: HTT CJ AC50
[6] = increase in AJ mRNA (50% response), A673 or K562 cells, 24 h treatment, top dose 10 uM, read-out: HTT AJ AC50
[7] = decrease in CJ mRNA levels, gene panel

IC50 [2, 7] [nM] | IC50 [3, 7] [nM] | IC50 [4, 7] [nM] | Compound | AC50 [1, 5] [nM] | AC50 [1, 6] [nM] | AC50 ([1]; 24 h, read-out: HTT AJ AC50 (nM)) [nM] | AC50 ([1]; 24 h, read-out: HTT CJ AC50 (nM)) [nM] | IC50 [2] [nM] | IC50 [3] [nM] | IC50 [4] [nM]
100 to 1000 | < 100 | 1000 to 10000 | Cc1cn2cc(-c3cc(F)c4c(=O)n(C5CCN(C)CC5)cnc4c3)cc(F)c2n1 [Compound 231, 5-fluoro-7-(8-fluoro-2-methylimidazo[1,2-a]pyridin-6-yl)-3-(1-methylpiperidin-4-yl)quinazolin-4(3H)-one] | 100 to 1000 | 100 to 1000 |  |  |  |  | 
1000 to 10000 | 100 to 1000 | 1000 to 10000 | Cc1cn2cc(-c3ccc4c(=O)n(C5CCN(C)CC5)cnc4c3)ncc2n1 [Compound 308] | 1000 to 10000 | 1000 to 10000 |  |  |  |  | 
> 10000 | > 10000 | > 10000 | CN1CCN(c2ccc3c(=O)n(-c4ccc5nn(C)cc5c4)cnc3c2)CC1 [Compound 152, 3-(2-methyl-2H-indazol-5-yl)-7-(4-methylpiperazin-1-yl)quinazolin-4(3H)-one] | > 10000 | > 10000 |  |  |  |  | 
> 10000 | > 10000 | > 10000 | CN1CCC(Nc2ccc3c(=O)n(-c4ccc5cn(C)nc5c4)cnc3c2)CC1 [Compound 203, 3-(2-methyl-2H-indazol-6-yl)-7-((1-methylpiperidin-4-yl)amino)quinazolin-4(3H)-one] | > 10000 | > 10000 |  |  |  |  | 
 |  |  | CN1CCC(Nc2ccc3c(=O)n(-c4ccc5nn(C)cc5c4)cnc3c2)CC1 [Compound 163, 3-(2-methyl-2H-indazol-5-yl)-7-((1-methylpiperidin-4-yl)amino)quinazolin-4(3H)-one] |  |  | > 10000 | > 10000 | > 10000 | > 10000 | > 10000
100 to 1000 | 100 to 1000 | 100 to 1000 | Cc1cn2cc(-n3cnc4cc(N5CCNCC5)ccc4c3=O)cc(F)c2n1 [Compound 228, 3-(8-fluoro-2-methylimidazo[1,2-a]pyridin-6-yl)-7-(piperazin-1-yl)quinazolin-4(3H)-one] | 100 to 1000 | 100 to 1000 |  |  |  |  | 
1000 to 10000 | < 100 | 1000 to 10000 | Cc1cn2nc(-c3ccc4c(c3)CCN(C3CCNC(C)(C)C3)C4=O)cc(C)c2n1 (stereo not shown) [Compound 267] | 1000 to 10000 | 100 to 1000 |  |  |  |  | 
1000 to 10000 | 100 to 1000 | 1000 to 10000 | Cc1cn2nc(-c3ccc4c(c3)CCN(C3CCNCC3)C4=O)nc2c(C)n1 [Compound 222] | 1000 to 10000 | 1000 to 10000 |  |  |  |  | 
1000 to 10000 | 1000 to 10000 | 1000 to 10000 | Cc1cn2cc(-c3ccc4c(=O)n(C5CCN(C)CC5)cnc4c3)c(C)cc2n1 [Compound 246] | 1000 to 10000 | 1000 to 10000 |  |  |  |  | 
1000 to 10000 | < 100 | 1000 to 10000 | Cc1cn2cc(-c3ccc4c(c3)CCN(C3CCNCC3)C4=O)cc(Cl)c2n1 [Compound 216] | 1000 to 10000 | 1000 to 10000 |  |  |  |  | 
1000 to 10000 | 1000 to 10000 | 1000 to 10000 | Cc1nc2c(F)cc(-c3ccc4c(=O)n(C5CCN(C)CC5)cnc4c3)cc2s1 [Compound 301] | 1000 to 10000 | 1000 to 10000 |  |  |  |  | 
> 10000 | > 10000 | > 10000 | Cn1cc2cc(-n3cnc4cc(C5CCNCC5)ccc4c3=O)ccc2n1 [Compound 172, 3-(2-methyl-2H-indazol-5-yl)-7-(piperidin-4-yl)quinazolin-4(3H)-one] | > 10000 | > 10000 |  |  |  |  | 
100 to 1000 | < 100 | 100 to 1000 | Cc1cn2nc(-c3ccc4c(=O)n(C5CCCNCC5)ncc4c3)cc(C)c2n1 (stereo not shown) [Compound 283, 2-(azepan-4-yl)-6-{2,8-dimethylimidazo[1,2-b]pyridazin-6-yl}phthalazin-1-one] | 100 to 1000 | 100 to 1000 |  |  |  |  | 
> 10000 | 1000 to 10000 | > 10000 | O=c1c2ccc(-c3cn[nH]c3)cc2cnn1C1CCNCC1 [Compound 261] | > 10000 | > 10000 |  |  |  |  | 
100 to 1000 | < 100 | 100 to 1000 | Cc1cc(-c2ccc3c(=O)n(C4CCNCC4)ncc3c2)cc2cn(C)nc12 [Compound 251] | 100 to 1000 | 100 to 1000 |  |  |  |  | 

Compound | IC50 [2, 7] [nM] | IC50 [3, 7] [nM] | IC50 [4, 7] [nM] | AC50 [1, 5] [nM] | AC50 [1, 6] [nM] | AC50 ([1]; 24 h, read-out: HTT AJ AC50 (nM)) [nM] | AC50 ([1]; 24 h, read-out: HTT CJ AC50 (nM)) [nM] | IC50 [2] [nM] | IC50 [3] [nM] | IC50 [4] [nM]
Cc1cc(-c2nc3ccc(N(C)C4CCN(C)CC4)cc3c(=O)[nH]2)cc2cn(C)nc12 [Compound 239, 2-(2,7-dimethyl-2H-indazol-5-yl)-6-(methyl(1-methylpiperidin-4-yl)amino)quinazolin-4(3H)-one] | > 10000 | 1000 to 10000 | > 10000 | > 10000 | > 10000 |  |  |  |  | 
Cn1cc2cc(-n3cnc4cc(C5=CC6CCC(C5)N6)ccc4c3=O)ccc2n1 (stereo not shown) [Compound 160, 7-(8-azabicyclo[3.2.1]oct-2-en-3-yl)-3-(2-methyl-2H-indazol-5-yl)quinazolin-4(3H)-one] | > 10000 | > 10000 | > 10000 | > 10000 | > 10000 |  |  |  |  | 
